Ki data for 14 molecules are collected here from PMC7782983, “Anion inhibition studies of the Zn(II)-bound ι-carbonic anhydrase from the Gram-negative bacterium Burkholderia territorii” (Journal of Enzyme Inhibition and Medicinal Chemistry, 2021).

Structures are written as SMILES.

The target of the first experiment is BteCAι. Put plainly: stopped-flow CO2 hydrase assay. The class given is biochemical, Burkholderia territorii. To be noted: CO2 hydration, HEPES pH 7.5, 20 mM NaClO4, 15 min preincubation, room temperature; Zn(II) enzyme; read-out: KI (mM)^a / BteCAι^d.
`N#CO` [CNO^−]: the Ki turned out to be 0.79 mM.

Turning to `O=C(O)O` [CO3^2−], the Ki was determined as 4.4 mM. Still for that read-out and setting: the result for `Cl` [Cl^−] reads 3.1 mM. Same read-out and setting: as for `CCN(CC)C(=S)S` [EtNCS2^−], the figure is 0.81 mM; as for `O=C(O)O` [HCO3^−], 0.94 mM; as for `NS(N)(=O)=O` [NH2SO2NH2], 0.086 mM. The same measure, in the same setting: as for `NS(=O)(=O)O` [NH2SO3H], the figure is 0.0062 mM.

In the case of `OB(O)c1ccccc1` [PhB(OH)2], the Ki amounted to 0.009 mM. On the same count and under the same terms, the result for `O=S(=O)(O)OOS(=O)(=O)O` [S2O8^2−] reads 7.4 mM; that for `N#CS` [SCN^−], 6.1 mM. Consider `O=S(=O)(O)O` [SO4^2−], for which the Ki was 5.8 mM. Still for that read-out and setting: as for `N#C[SeH]` [SeCN^−], the figure is 6.6 mM; as for `[O]=[Sn]([OH])[OH]` [SnO3^2−], 0.094 mM.

The experiment is the same for the next values; noted with them: read-out: KI (mM)^a / BteCAι^d.
For the molecule `O=[As](O)(O)c1ccccc1` [PhAsO3H2], the Ki came to 0.008 mM.
